{
  "source": "patent EP0426167A2",
  "about": "“Antitumor substance, process for preparing the same, and pharmaceutical composition containing the same” (MEIJI SEIKA KAISHA LTD., priority 1989, dated 1991)",
  "origin": "cited, not measured here",
  "key": {"P388 tumor cells [1]": {"test_system": "P388 tumor cells", "conditions": "result in words; cited from earlier work"}, "P388 tumor cells [2]": {"test_system": "P388 tumor cells", "conditions": "result in words; cited from earlier work", "remark": "listed apart in the source"}, "[3]": {"conditions": "mouse, i.p.; cited from earlier work"}},
  "data": [
    {"smiles": "Cc1cc2c(c3oc(C4(C)OC4C4OC4C)cc(=O)c13)C(=O)c1c(ccc(C3CC(C)(N(C)C)C(O)C(C)O3)c1O)C2=O", "note": "(stereo not drawn) [SF2587 substance]", "values": [
      {"measurement": "inhibitory activity on P388 tumor cells", "setting": "P388 tumor cells [1]", "result": "considerable inhibitory activity"},
      {"measurement": "therapeutic effects in mice transplanted with P388 tumor cells", "setting": "P388 tumor cells [2]", "result": "excellent therapeutic, effects"},
      {"measurement": "LD₅₀", "setting": "[3]", "result": "0.5 to 1", "unit": "mg/kg"}
    ]}
  ]
}
